Experimental data: paper PMC2651632 (Biochemistry, 2008)

Molecular target: T1, reconstituted ATase (ATN6-ATC3 complex) (Escherichia coli, UniProt P30870)
T1 sequence (P30870 1-608): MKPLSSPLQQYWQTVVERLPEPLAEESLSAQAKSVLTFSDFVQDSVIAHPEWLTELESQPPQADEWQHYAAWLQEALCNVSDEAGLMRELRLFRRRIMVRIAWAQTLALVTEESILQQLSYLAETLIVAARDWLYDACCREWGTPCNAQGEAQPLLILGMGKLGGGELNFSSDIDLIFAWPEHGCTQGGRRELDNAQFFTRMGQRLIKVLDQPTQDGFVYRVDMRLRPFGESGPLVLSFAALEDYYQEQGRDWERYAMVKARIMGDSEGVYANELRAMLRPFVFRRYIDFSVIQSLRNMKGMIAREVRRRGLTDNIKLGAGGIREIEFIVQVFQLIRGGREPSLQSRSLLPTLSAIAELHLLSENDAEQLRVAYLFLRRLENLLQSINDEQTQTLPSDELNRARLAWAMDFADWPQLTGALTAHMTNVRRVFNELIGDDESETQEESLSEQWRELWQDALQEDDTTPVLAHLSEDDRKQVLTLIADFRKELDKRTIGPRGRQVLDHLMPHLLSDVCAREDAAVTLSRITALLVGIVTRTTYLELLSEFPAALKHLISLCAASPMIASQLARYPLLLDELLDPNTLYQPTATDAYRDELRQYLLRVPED
T1 sequence (P30870 609-946 partner): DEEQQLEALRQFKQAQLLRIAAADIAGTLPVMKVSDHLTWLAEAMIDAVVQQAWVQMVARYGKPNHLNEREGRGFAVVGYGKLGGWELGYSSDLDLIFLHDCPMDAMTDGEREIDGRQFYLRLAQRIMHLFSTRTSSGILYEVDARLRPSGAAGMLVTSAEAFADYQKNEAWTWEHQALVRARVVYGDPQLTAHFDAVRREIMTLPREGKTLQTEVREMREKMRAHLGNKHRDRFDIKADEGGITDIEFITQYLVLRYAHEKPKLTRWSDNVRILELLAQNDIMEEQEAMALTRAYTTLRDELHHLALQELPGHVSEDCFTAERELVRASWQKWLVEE
Assay: initial rate of GS adenylylation, […] incorporation from [alpha-32P]ATP
Type: biochemical

Which EC50 does the source give for `NC(=O)CC[C@H](N)C(=O)O` [glutamine] here?
The EC50 was about 7 mM.
